Measured values taken from PubChem BioAssay (NCI).
“And” between values parts separate entries of the source, which are not always exact repeats. Equal entries are not always repeated.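 Interpolation was linear, between the two tested concentrations surrounding the appropriate level; five concentrations were tested over 48 hours in 96-well plates. At the GI50, growth is halved. TGI: total growth inhibition.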

Legend:
Test in all cases: NCI tumour cell line growth inhibition, 48 h
A549 NSCLC = system: A549 NSCLC
ACHN renal = system: ACHN renal
BT-549 breast = system: BT-549 breast
CAKI-1 renal = system: CAKI-1 renal
CCRF-CEM leukemia = system: CCRF-CEM leukemia
COLO 205 colon = system: COLO 205 colon
DMS 114 small cell lung = system: DMS 114 small cell lung
EKVX NSCLC = system: EKVX NSCLC
HCC-2998 colon = system: HCC-2998 colon
HCT-116 colon = system: HCT-116 colon
HCT-15 colon = system: HCT-15 colon
HL-60(TB) leukemia = system: HL-60(TB) leukemia
HOP-18 NSCLC = system: HOP-18 NSCLC
HS 578T breast = system: HS 578T breast
HT29 colon = system: HT29 colon
IGROV1 ovarian = system: IGROV1 ovarian
KM12 colon = system: KM12 colon
KM20L2 colon = system: KM20L2 colon
LXFL 529 NSCLC = system: LXFL 529 NSCLC
M14 melanoma = system: M14 melanoma
M19-MEL melanoma = system: M19-MEL melanoma
MALME-3M melanoma = system: MALME-3M melanoma
MCF7 breast = system: MCF7 breast
MDA-MB-231 breast = system: MDA-MB-231 breast
MDA-MB-435 = system: MDA-MB-435
MDA-N = system: MDA-N
MOLT-4 leukemia = system: MOLT-4 leukemia
NCI-H226 lung = system: NCI-H226 lung
NCI-H23 lung = system: NCI-H23 lung
NCI-H460 lung = system: NCI-H460 lung
NCI/ADR-RES ovarian = system: NCI/ADR-RES ovarian
OVCAR-3 ovarian = system: OVCAR-3 ovarian
OVCAR-4 ovarian = system: OVCAR-4 ovarian
OVCAR-5 ovarian = system: OVCAR-5 ovarian
OVCAR-8 ovarian = system: OVCAR-8 ovarian
P388/ADR leukemia = system: P388/ADR leukemia
PC-3 prostate = system: PC-3 prostate
RPMI-8226 leukemia = system: RPMI-8226 leukemia
RXF 393 renal = system: RXF 393 renal
SF-268 CNS = system: SF-268 CNS
SF-295 CNS = system: SF-295 CNS
SF-539 CNS = system: SF-539 CNS
SK-MEL-28 melanoma = system: SK-MEL-28 melanoma
SK-MEL-5 melanoma = system: SK-MEL-5 melanoma
SK-OV-3 ovarian = system: SK-OV-3 ovarian
SN12C renal = system: SN12C renal
SN12K1 renal = system: SN12K1 renal
SNB-19 CNS = system: SNB-19 CNS
SNB-75 CNS = system: SNB-75 CNS
SR leukemia = system: SR leukemia
T-47D breast = system: T-47D breast
UACC-62 melanoma = system: UACC-62 melanoma
UO-31 renal = system: UO-31 renal
XF 498 CNS = system: XF 498 CNS

CCOC(=O)C(CC(C)C)NC(=O)C(Cc1ccc(N(CCCl)CCCl)cc1)NC(C)=O (stereo unspecified)
TGI (A549 NSCLC): > 100 µM and 77.5 µM | GI50 (ACHN renal): 3.7 µM | TGI (ACHN renal): 16 µM and 9.63 µM | TGI (BT-549 breast): 32.3 µM | GI50 (CAKI-1 renal): 3.71 µM | TGI (CAKI-1 renal): 16.2 µM and 6.73 µM | GI50 (CCRF-CEM leukemia): 2.52 µM | GI50 (COLO 205 colon): 7.01 µM | TGI (COLO 205 colon): 19.8 µM and 13 µM | GI50 (DMS 114 small cell lung): 1.37 µM | TGI (DMS 114 small cell lung): 12.2 µM and 7.05 µM | GI50 (EKVX NSCLC): 19.7 µM | TGI (EKVX NSCLC): 35.7 µM and 27.7 µM | GI50 (HCC-2998 colon): 17.2 µM | TGI (HCC-2998 colon): 31.5 µM and 30.6 µM | GI50 (HCT-116 colon): 12.7 µM | TGI (HCT-116 colon): 29.3 µM and 39.8 µM | TGI (HCT-15 colon): 43.1 µM | GI50 (HL-60(TB) leukemia): 2.07 µM | TGI (HL-60(TB) leukemia): 28.7 µM and 3.32 µM | TGI (HOP-18 NSCLC): 33.7 µM | TGI (HS 578T breast): 20.2 µM | GI50 (HT29 colon): 14.9 µM | TGI (HT29 colon): 36.7 µM and 31.8 µM | TGI (IGROV1 ovarian): 33.2 µM and 29.3 µM | GI50 (KM12 colon): 17.8 µM | TGI (KM12 colon): 37.5 µM and 44.7 µM | GI50 (KM20L2 colon): 13.8 µM | TGI (KM20L2 colon): 29.7 µM and 46.9 µM | TGI (LXFL 529 NSCLC): 26.5 µM | GI50 (M14 melanoma): 4.13 µM | TGI (M14 melanoma): 15.8 µM and 8.08 µM | GI50 (M19-MEL melanoma): 6.3 µM | TGI (M19-MEL melanoma): 19.3 µM and 15.9 µM | GI50 (MALME-3M melanoma): 4.01 µM | TGI (MALME-3M melanoma): 22.8 µM and 7.77 µM | TGI (MCF7 breast): 25.9 µM | TGI (MDA-MB-231 breast): 23.2 µM | TGI (MDA-MB-435): 11.5 µM | TGI (MDA-N): 6.91 µM | GI50 (MOLT-4 leukemia): 2.04 µM and 0.307 µM | TGI (MOLT-4 leukemia): 15.5 µM and 3.31 µM | GI50 (NCI-H226 lung): 12.2 µM | TGI (NCI-H226 lung): 28.3 µM and 41.1 µM | GI50 (NCI-H23 lung): 5.17 µM | TGI (NCI-H23 lung): 16.7 µM and 16.5 µM | TGI (NCI-H460 lung): 14.1 µM and 17.6 µM | TGI (NCI/ADR-RES ovarian): 68.5 µM | GI50 (OVCAR-3 ovarian): 15.1 µM | TGI (OVCAR-3 ovarian): 29.2 µM and 13.7 µM | GI50 (OVCAR-4 ovarian): 16.1 µM | TGI (OVCAR-4 ovarian): 29.5 µM and 27.1 µM | TGI (OVCAR-5 ovarian): 32 µM and 33.5 µM | GI50 (OVCAR-8 ovarian): 12.1 µM | TGI (OVCAR-8 ovarian): 30.8 µM and 55.2 µM | TGI (P388/ADR leukemia): 10.5 µM | TGI (PC-3 prostate): 57.8 µM | GI50 (RPMI-8226 leukemia): 3.19 µM | TGI (RPMI-8226 leukemia): 14.8 µM and 15 µM | GI50 (RXF 393 renal): 2.57 µM | TGI (RXF 393 renal): 6.75 µM and 4.46 µM | TGI (SF-268 CNS): 22.6 µM and 20.5 µM | GI50 (SF-295 CNS): 7.89 µM | TGI (SF-295 CNS): 26.8 µM and 26.3 µM | TGI (SF-539 CNS): 10.6 µM and 9.63 µM | GI50 (SK-MEL-28 melanoma): 14.6 µM | TGI (SK-MEL-28 melanoma): 31.2 µM and 19.3 µM | GI50 (SK-MEL-5 melanoma): 10.6 µM | TGI (SK-MEL-5 melanoma): 23.5 µM and 10.7 µM | GI50 (SK-OV-3 ovarian): 21.7 µM | TGI (SK-OV-3 ovarian): 58.6 µM and 35.5 µM | GI50 (SN12C renal): 4.59 µM | TGI (SN12C renal): 17.2 µM and 14.6 µM | TGI (SN12K1 renal): 10.4 µM | GI50 (SNB-19 CNS): 19.7 µM | TGI (SNB-19 CNS): 81.8 µM and 42.7 µM | GI50 (SNB-75 CNS): 8.51 µM | TGI (SNB-75 CNS): 21.7 µM and 24.9 µM | GI50 (SR leukemia): 1.04 µM and 0.895 µM | TGI (SR leukemia): 10.8 µM and 7 µM | TGI (T-47D breast): 11.2 µM | GI50 (UACC-62 melanoma): 2.86 µM | TGI (UACC-62 melanoma): 12.7 µM and 7.29 µM | GI50 (UO-31 renal): 13.2 µM | TGI (UO-31 renal): 73 µM and 20.4 µM | TGI (XF 498 CNS): 1.14 µM
